This note sets out measurements from ChEMBL document CHEMBL5634118, “Inhibition of Son of Sevenless Homologue 1 (SOS1): Promising therapeutic treatment for KRAS-mutant cancers” (Eur J Med Chem, 2023).

One series deals with K562. In words: cells. The note with it: Homo sapiens, K562, 72 h.
For series [1], the system named is MIA PaCa-2. Briefly: Antiproliferative activity against human MIA PaCa-2 cells assessed as reduction in cell growth measured after 48 hrs by MTT assay. The note with it: MIA PaCa-2, 48 h. The series is classed as functional, cell-based. For orientation: Tetrazolium assays rely on reduction of a dye to a coloured formazan, in cell work by metabolically active cells.

Series [2] concerns the target T1, Son of sevenless homolog 1 (Homo sapiens, UniProt Q07889).
T1 sequence (Q07889 whole entry): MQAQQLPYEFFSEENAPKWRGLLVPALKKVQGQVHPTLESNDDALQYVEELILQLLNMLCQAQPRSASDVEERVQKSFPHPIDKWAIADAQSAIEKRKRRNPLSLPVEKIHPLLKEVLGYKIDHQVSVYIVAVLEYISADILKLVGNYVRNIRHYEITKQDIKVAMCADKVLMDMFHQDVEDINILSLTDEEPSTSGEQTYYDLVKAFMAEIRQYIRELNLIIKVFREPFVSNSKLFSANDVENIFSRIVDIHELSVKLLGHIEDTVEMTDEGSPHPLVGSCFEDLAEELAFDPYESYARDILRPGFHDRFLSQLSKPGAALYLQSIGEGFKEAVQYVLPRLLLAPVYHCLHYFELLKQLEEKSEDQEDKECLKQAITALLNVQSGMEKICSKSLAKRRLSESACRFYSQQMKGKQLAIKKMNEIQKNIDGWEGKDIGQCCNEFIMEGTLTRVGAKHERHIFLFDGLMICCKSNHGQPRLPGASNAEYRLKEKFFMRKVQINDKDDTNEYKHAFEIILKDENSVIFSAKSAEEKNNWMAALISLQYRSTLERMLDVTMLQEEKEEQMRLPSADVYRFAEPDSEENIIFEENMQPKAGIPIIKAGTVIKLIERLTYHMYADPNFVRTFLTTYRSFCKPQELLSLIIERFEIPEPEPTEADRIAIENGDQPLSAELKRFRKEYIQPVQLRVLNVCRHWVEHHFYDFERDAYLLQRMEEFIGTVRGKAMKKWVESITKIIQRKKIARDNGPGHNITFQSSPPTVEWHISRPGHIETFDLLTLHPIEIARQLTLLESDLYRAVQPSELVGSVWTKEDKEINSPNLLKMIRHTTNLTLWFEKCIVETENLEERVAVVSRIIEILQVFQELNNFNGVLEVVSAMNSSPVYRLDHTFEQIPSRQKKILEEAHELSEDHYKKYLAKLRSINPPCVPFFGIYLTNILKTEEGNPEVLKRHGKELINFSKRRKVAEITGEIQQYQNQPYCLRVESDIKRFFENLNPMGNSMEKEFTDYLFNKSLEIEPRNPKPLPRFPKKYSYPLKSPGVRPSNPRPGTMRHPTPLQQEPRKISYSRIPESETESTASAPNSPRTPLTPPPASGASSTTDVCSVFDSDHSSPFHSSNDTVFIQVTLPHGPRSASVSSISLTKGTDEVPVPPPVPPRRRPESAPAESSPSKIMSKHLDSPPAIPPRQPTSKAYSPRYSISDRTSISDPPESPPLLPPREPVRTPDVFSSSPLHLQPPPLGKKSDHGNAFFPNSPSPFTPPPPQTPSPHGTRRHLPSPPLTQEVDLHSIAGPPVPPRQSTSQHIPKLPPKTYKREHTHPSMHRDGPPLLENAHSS
Briefly: Inhibition of SOS1 in human Calu-1 cells assessed as reduction in pERK level incubated for 24 hrs by HTRF analysis. The series is classed as cell-based.

The test system of series [3] is MIA PaCa-2. In words: Antitumor activity against human MIA PaCa-2 cells xenografted in mouse model assessed as tumor growth inhibition at 50 mg/kg, po relative to control. It counts as functional. The following applies: read-out: TGI. On the technique in general: Xenograft models place foreign cells or tissue in a host animal.
Series [4] in a line: Half life in mouse. The series is classed as ADME, organism-based. The note with it: in vivo.
Series [5] is described as follows: Intrinsic clearance in mouse liver microsomes. The series is classed as ADME, Microsome. The following applies: read-out: CLH.
Series [6] in a line: Half life in mouse at 10 mg/kg, ip by LC-MS analysis. The series is classed as ADME, organism-based. The note with it: in vivo.
Series [7] deals with von Hippel-Lindau disease tumor suppressor/Son of sevenless homolog 1 (Homo sapiens, UniProt Q07889+P40337, G12D). Briefly: PROTAC activity at VHL/SOS1 in human NCI-H358 cells harboring KRAS […] mutant assessed as induction of SOS1 degradation incubated for 24 hrs by immunoblotting analysis. The series is classed as cell-based.
von Hippel-Lindau disease tumor suppressor/Son of sevenless homolog 1 (Homo sapiens, UniProt Q07889+P40337, G12D), sequence (P40337 whole entry, looked up, stated change not applied, one chain of several): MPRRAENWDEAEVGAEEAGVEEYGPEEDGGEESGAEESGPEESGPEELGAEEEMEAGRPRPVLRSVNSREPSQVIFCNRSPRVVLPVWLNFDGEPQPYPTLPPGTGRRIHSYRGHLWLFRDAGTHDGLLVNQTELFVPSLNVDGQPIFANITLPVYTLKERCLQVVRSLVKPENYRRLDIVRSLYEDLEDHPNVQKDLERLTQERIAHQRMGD
The target of series [8] is von Hippel-Lindau disease tumor suppressor/Son of sevenless homolog 1 (Homo sapiens, UniProt Q07889+P40337). Briefly: PROTAC activity at VHL/SOS1 in human NCI-H358 cells assessed as induction of SOS1 protein degradation incubated for 24 hrs by Immunoblot analysis. It counts as cell-based.
von Hippel-Lindau disease tumor suppressor/Son of sevenless homolog 1 (Homo sapiens, UniProt Q07889+P40337), sequence (P40337 whole entry, one chain of several): as the sequence (P40337 whole entry, looked up, stated change not applied, one chain of several) above
In series [9] the target is von Hippel-Lindau disease tumor suppressor/Son of sevenless homolog 1 (Homo sapiens, UniProt Q07889+P40337, G12R). In words: PROTAC activity at VHL/SOS1 in human NCI-H358 cells harboring KRAS G12R mutant assessed as induction of SOS1 degradation incubated for 24 hrs by immunoblotting analysis. It counts as cell-based.
von Hippel-Lindau disease tumor suppressor/Son of sevenless homolog 1 (Homo sapiens, UniProt Q07889+P40337, G12R), sequence (P40337 whole entry, looked up, stated change not applied, one chain of several): as above
For a further series, the system named is NCI-H460. In words: Antiproliferative activity against human NCI-H460 cells harboring KRAS […] mutant assessed as inhibition of cell proliferation incubated for 7 days by CellTiterGlo-3D proliferation assay. It counts as functional, cell-based. The note with it: NCI-H460, 168 h. Background: In ATP-based viability assays light output follows the ATP content of the culture.

Series [10] has as its target von Hippel-Lindau disease tumor suppressor/Son of sevenless homolog 1 (Homo sapiens, UniProt Q07889+P40337, G12C). Briefly: PROTAC activity at VHL/SOS1 in human NCI-H358 cells harboring KRAS G12C mutant assessed as induction of SOS1 degradation incubated for 24 hrs by immunoblotting analysis. The series is classed as cell-based.
The target of series [11] is von Hippel-Lindau disease tumor suppressor/Son of sevenless homolog 1 (Homo sapiens, UniProt Q07889+P40337, G12V). Briefly: PROTAC activity at VHL/SOS1 in human NCI-H358 cells harboring KRAS G12V mutant assessed as induction of SOS1 degradation incubated for 24 hrs by immunoblotting analysis. It counts as cell-based.
von Hippel-Lindau disease tumor suppressor/Son of sevenless homolog 1 (Homo sapiens, UniProt Q07889+P40337, G12V), sequence (P40337 whole entry, looked up, stated change not applied, one chain of several): as above
A short description of series [12]: AUC in mouse at 10 mg/kg, ip by LC-MS analysis. It counts as ADME, organism-based. The following applies: in vivo.
The next series deals with CAL-62. Briefly: Antiproliferative activity against human CAL-62 cells harboring KRAS G12R mutant assessed as inhibition of cell proliferation incubated for 7 days by CellTiterGlo-3D proliferation assay. The series is classed as functional, cell-based. The following applies: CAL-62, 168 h.
Series [13] has as its target von Hippel-Lindau disease tumor suppressor/Son of sevenless homolog 1 (Homo sapiens, UniProt Q07889+P40337, G12S). In words: PROTAC activity at VHL/SOS1 in human NCI-H358 cells harboring KRAS G12S mutant assessed as induction of SOS1 degradation incubated for 24 hrs by immunoblotting analysis. The series is classed as cell-based.
In series [14] the test system is NCI-H358. In words: Antitumor activity against human NCI-H358 cells harboring KRAS […] mutant xenografted in mouse model assessed as tumor growth inhibition at 10 mg/kg, ip administered once daily for 3 weeks relative to control. The note with it: NCI-H358, 504 h, read-out: TGI. It counts as functional.
For series [15], the target named is von Hippel-Lindau disease tumor suppressor/Son of sevenless homolog 1 (Homo sapiens, UniProt Q07889+P40337, G13D). Briefly: PROTAC activity at VHL/SOS1 in human NCI-H358 cells harboring KRAS G13D mutant assessed as induction of SOS1 degradation incubated for 24 hrs by immunoblotting analysis. It counts as cell-based.
von Hippel-Lindau disease tumor suppressor/Son of sevenless homolog 1 (Homo sapiens, UniProt Q07889+P40337, G13D), sequence (P40337 whole entry, looked up, stated change not applied, one chain of several): as above
Series [16] has as its system NCI-H358. Briefly: Antitumor activity against human NCI-H358 cells harboring KRAS G12V mutant xenografted in mouse model assessed as tumor growth inhibition at 10 mg/kg, ip administered once daily for 3 weeks relative to control. The series is classed as functional. The following applies: NCI-H358, 504 h, read-out: TGI.
Series [17] relates to MIA PaCa-2. Briefly: Antitumor activity against human MIA PaCa-2 cells xenografted in CD-1 mouse assessed as in tumor growth inhibition at 20 mg/kg, po BID for 22 days relative to control. The note with it: MIA PaCa-2, 528 h, time 22 day, read-out: TGI. It counts as functional.
Series [18] addresses T1, Son of sevenless homolog 1. Briefly: Binding affinity to SOS1 (unknown origin) assessed as inhibition constant by HTRF method.
Series [19] is described as follows: Half life in CD-1 mouse at 20 mg/kg, po measured after 24 hrs by LC-MS/MS analysis. The series is classed as ADME, organism-based. The note with it: in vivo.
In series [20] the test system is MIA PaCa-2. In words: Antiproliferative activity against human MIA PaCa-2 cells harboring KRAS G12C mutant assessed as reduction in cell viability incubated for 72 hrs by MTT assay. It counts as functional, cell-based. The note with it: MIA PaCa-2, 72 h.
Series [21] in a line: Clearance in CD-1 mouse at 5 mg/kg, ip measured after 24 hrs by LC-MS/MS analysis. The note with it: in vivo. It counts as ADME, organism-based.
Series [22] has as its target Epidermal growth factor receptor (Homo sapiens, UniProt P00533). Briefly: Inhibition of EGFR (unknown origin).
Series [23] can be described thus: Oral bioavailability in CD-1 mouse at 20 mg/kg measured upto 24 hrs by LC/MS/MS analysis. It counts as ADME, organism-based. The following applies: in vivo.
The target in series [24] is T1, Son of sevenless homolog 1. Briefly: Inhibition of SOS1 (unknown origin) by HTRF assay.
The subject of series [25] is MIA PaCa-2. Briefly: Antitumor activity against human MIA PaCa-2 cells xenografted in CD-1 mouse assessed as tumor growth inhibition at 20 mg/kg BID for 22 days relative to control. It counts as functional. The following applies: MIA PaCa-2, 528 h, time 22 day, read-out: TGI.
Series [26] in a line: Volume of distribution at steady state in CD-1 mouse at 5 mg/kg, ip measured after 24 hrs by LC-MS/MS analysis. It counts as ADME, organism-based. The note with it: in vivo.
For series [27], the system named is MIA PaCa-2. In words: Antitumor activity against human MIA PaCa-2 cells xenografted in CD-1 mouse assessed as tumor inhibition at 20 mg/kg, po BID for 22 days relative to control. The series is classed as functional. The note with it: MIA PaCa-2, 528 h, time 22 day, read-out: TGI.

von Hippel-Lindau disease tumor suppressor/Son of sevenless homolog 1 (Homo sapiens, UniProt Q07889+P40337, G12C), sequence (P40337 whole entry, looked up, stated change not applied, one chain of several): as above
von Hippel-Lindau disease tumor suppressor/Son of sevenless homolog 1 (Homo sapiens, UniProt Q07889+P40337, G12S), sequence (P40337 whole entry, looked up, stated change not applied, one chain of several): as above
Epidermal growth factor receptor, sequence (P00533 whole entry): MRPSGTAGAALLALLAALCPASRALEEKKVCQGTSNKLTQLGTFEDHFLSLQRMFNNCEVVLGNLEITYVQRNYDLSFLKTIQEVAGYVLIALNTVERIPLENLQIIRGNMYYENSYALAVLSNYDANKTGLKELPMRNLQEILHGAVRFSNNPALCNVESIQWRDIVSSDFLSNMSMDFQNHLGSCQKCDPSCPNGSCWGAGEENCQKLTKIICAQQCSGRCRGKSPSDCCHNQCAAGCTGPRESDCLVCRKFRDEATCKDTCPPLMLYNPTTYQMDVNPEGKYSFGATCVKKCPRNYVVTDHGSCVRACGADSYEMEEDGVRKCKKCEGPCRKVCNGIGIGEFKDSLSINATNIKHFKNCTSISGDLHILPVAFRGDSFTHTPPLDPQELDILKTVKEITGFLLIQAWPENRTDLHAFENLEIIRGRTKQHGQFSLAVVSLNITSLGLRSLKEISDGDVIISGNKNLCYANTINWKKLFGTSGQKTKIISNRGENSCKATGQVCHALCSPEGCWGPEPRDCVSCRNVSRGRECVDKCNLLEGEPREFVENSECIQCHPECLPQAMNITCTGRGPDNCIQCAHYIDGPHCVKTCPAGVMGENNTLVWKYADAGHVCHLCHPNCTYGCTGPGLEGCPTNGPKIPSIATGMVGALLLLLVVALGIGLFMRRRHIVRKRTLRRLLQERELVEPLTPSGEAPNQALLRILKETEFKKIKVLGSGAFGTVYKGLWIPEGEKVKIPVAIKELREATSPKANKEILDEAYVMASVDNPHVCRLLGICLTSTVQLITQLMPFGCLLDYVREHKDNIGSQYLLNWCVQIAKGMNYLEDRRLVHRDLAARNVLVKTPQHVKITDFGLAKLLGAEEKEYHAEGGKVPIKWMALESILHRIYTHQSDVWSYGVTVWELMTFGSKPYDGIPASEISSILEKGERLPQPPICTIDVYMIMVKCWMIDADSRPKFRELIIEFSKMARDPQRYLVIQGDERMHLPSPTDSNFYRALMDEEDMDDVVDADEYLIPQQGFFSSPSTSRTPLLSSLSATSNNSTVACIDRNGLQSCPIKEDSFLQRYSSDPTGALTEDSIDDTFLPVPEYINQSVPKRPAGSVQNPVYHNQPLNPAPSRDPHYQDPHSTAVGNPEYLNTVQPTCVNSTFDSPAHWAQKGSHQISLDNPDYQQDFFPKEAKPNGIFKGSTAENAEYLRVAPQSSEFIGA

The compound `COc1cc2nc(C)nc(N[C@H](C)c3cc(N)cc(C(F)(F)F)c3)c2cc1O[C@H]1CCOC1` showed an IC50 in the series with K562 of 37 nM.
Turning to `Cc1nc(N[C@H](C)c2cccc(C(F)F)c2F)c2cc3c(cc2n1)OC[C@H]1CN(C(=O)C2(C#N)CC2)CCN31`, the results for the IC50 (in the series with MIA PaCa-2 [1]; in [2]) were 178 nM and 5 nM, respectively. In addition, the inhibition in vivo at 50 mg/kg with MIA PaCa-2 [3] was determined as 71%. The compound further gave a half-life in [4] of 1.12 h. Moreover, the CLint scaled in [5] came out at 37.2 mL/min/kg.
`COc1cc2nc(C)nc(N[C@H](C)c3cc(N)cc(C(F)(F)F)c3)c2cc1C1CCN(C(=O)CCCCCC(=O)N[C@H](C(=O)N2C[C@H](O)C[C@H]2C(=O)N[C@@H](C)c2ccc(-c3scnc3C)cc2)C(C)(C)C)CC1` had a half-life in series [6] of 9.69 h. Further, the DC50 came to 8.41 nM in series [7]; 15.7 nM in [8]; 8.41 nM in series [9]; 8.41 nM in series [10]; 8.41 nM in [11]; 8.41 nM in [13]. In addition, in series [15], the DC50 was found to be 8.41 nM. Also, the IC50 in the series on NCI-H460 and in the series on CAL-62 was 6.97 nM throughout. Further, the AUC in series [12] came out at 14100 ng·h/mL. Further, the inhibition in vivo at 10 mg/kg with NCI-H358 [14] and with NCI-H358 [16] was more than 65% each time.
In the case of `COC(=O)N1CCN2c3cc4c(N[C@H](C)c5cccc(C(F)F)c5F)nnc(C)c4cc3OC[C@H]2C1`, the IC50 in [2] was 1.6 nM; in the series with MIA PaCa-2 [20], 43 nM; in series [22], more than 10000 nM; in [24], 1.1 nM. Besides, the values for the inhibition in vivo at 20 mg/kg with MIA PaCa-2 [17], with MIA PaCa-2 [25] and in the series with MIA PaCa-2 [27] were 87%, 42% and 104%, respectively. Further, in [18], the inhibition constant (Ki) worked out at 3.9 nM. Moreover, the half-life in series [19] is 6.4 h. For the same compound, in series [21], the CL/F turned out to be 1.7 mL/min/kg. This compound also returned a bioavailability in [23] of 65.8%. Besides, in series [26], the Vdss was 0.33 L/kg.

One may read the IC50 as the concentration that inhibits the measured activity by half. In general, half-life refers to the time needed for the level to fall by half in the phase considered. Read a low half-life as rapid decline. Usually DC50 stands for the midpoint of the concentration-degradation curve. For orientation: AUC means concentration integrated over time. A low value points to less exposure. A word on the Ki: it is a measure of affinity in units of concentration, obtained from inhibition or displacement. In general, CL/F refers to clearance divided by bioavailability, as obtained after extravascular dosing. As usually defined, the bioavailability is the share of a dose that reaches the circulation, judged against a reference dose that is usually intravenous. A lower bioavailability goes with poor availability.
